Test results reported in patent US10941158B2, “Pyrazole ACC inhibitors and uses thereof” (Gilead Apollo, LLC, priority 2015, dated 2021).
Converted amounts (≈) assume the structure as drawn. Like-named read-outs stand apart in the source and are kept apart here.

Key:
human (hACC2) ACC2 = human (hACC2) ACC2 (Homo sapiens, UniProt O00763); experiment: In vitro Acetyl-CoA Carboxylase (ACC) inhibition assay (ADP-Glo), hACC2; format: biochemical
Method: The detailed procedure is as follows. […] 10 μL ADP glo reagent was added. […] 20 μL kinase detection reagent was added.
“NA” stands for “not assayed.”

[1] = tested on: Fusarium moniliforme (Fm); experiment: Growth inhibition assay of fungal pathogens; format: cell-based; settings: for IC90: Fusarium verticillioides, 48 h, read-out: Concentration at 90% Inhibition Fm
Summary of the method: (§1)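 Compounds in DMSO tested at final 50, 10, 2 ppm or 2, 0.4, 0.08 ppm. Spores in 17% V8 medium, or 1.5 mm mycelial plugs in ¼ PDB for R. solani, incubated with compound. OD600 and visual ratings at 48 h versus 2% DMSO control gave percent growth inhibition.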

Rhizoctonia solani (Rs) = experiment: Growth inhibition assay of fungal pathogens; format: cell-based; settings: 48 h, read-out: Concentration at 90% Inhibition Rs
Summary of the method: as §1

[2] = tested on: Phytophthora capsici (Pc); experiment: Growth inhibition assay of fungal pathogens; format: cell-based; settings: for IC90: Phytophthora capsici, read-out: Concentration at 90% Inhibition Pc
Summary of the method: (§2)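 Liquid-culture assay in which test compounds are applied at three final concentrations (50, 10, 2 ppm or 2, 0.4, 0.08 ppm). Inoculum levels follow 48 h growth curves for each fungus. Growth is monitored by OD600 and by eye, and the 48 h values give % inhibition against DMSO.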

Diplodia maydis (Dm) = experiment: Growth inhibition assay of fungal pathogens; format: cell-based; settings: Stenocarpella maydis, 48 h, read-out: Concentration at 90% Inhibition Dm
Summary of the method: as §1

[3] = tested on: Fusarium virguliforme (Fv); experiment: Growth inhibition assay of fungal pathogens; format: cell-based; settings: 48 h
Summary of the method: as §2

Botrtyis cinerea (Bc) = experiment: Growth inhibition assay of fungal pathogens; format: cell-based; settings: 48 h, read-out: Concentration at 90% Inhibition Bc
Summary of the method: as §1

[4] = tested on: Collectotrichum graminicola (Cg); experiment: Growth inhibition assay of fungal pathogens; format: cell-based; settings: 48 h, read-out: Concentration at 90% Inhibition Cg
Summary of the method: as §2

Septoria tritici (St) = experiment: Growth inhibition assay of fungal pathogens; format: cell-based; settings: for IC90: Zymoseptoria tritici, read-out: Concentration at 90% Inhibition St
Summary of the method: as §2

C. krusei ATCC 6258 = experiment: Anti-Fungal (Candida) Activity Assay, broth microtiter MIC; format: cell-based; settings: Pichia kudriavzevii, read-out: MIC C. krusei ATCC 6258
Summary of the method: (§3)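 Strains plated from frozen stock onto Sabouraud dextrose agar, 35 °C, 24 h; colonies suspended directly in RPMI 1640/MOPS, density from standard curves; CLSI M27-A3 microdilution; 48 h read, visual vs growth control.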

[5] = tested on: C. parapsilosis ATCC 22019; experiment: as above; format: cell-based; settings: Lodderomyces parapsilosis, read-out: MIC C. parapsilosis ATCC 22019
Summary of the method: as §3

C. albicans ATCC 90028 = experiment: as above; format: cell-based; settings: read-out: MIC C. albicans ATCC 90028
Summary of the method: as §3

fungal (fACC2) ACC2 = fungal (fACC2) ACC2 (UniProt Q00955); settings: read-out: fACC2 IC50; fungal ACC2, ADP-Glo
[6] = Table 4b, 48 hours, read-out: Concentration at 90% Inhibition Fv
[7] = ATCC6258, 3 replicates, MIC recorded at 48 h
[8] = ATCC22019, 3 replicates, MIC recorded at 48 h
[9] = ATCC90028, 3 replicates, MIC recorded at 48 h
[10] = Table 4a, 48 hours, read-out: Concentration at 90% Inhibition Fv

Chain of human (hACC2) ACC2 (O00763 whole entry): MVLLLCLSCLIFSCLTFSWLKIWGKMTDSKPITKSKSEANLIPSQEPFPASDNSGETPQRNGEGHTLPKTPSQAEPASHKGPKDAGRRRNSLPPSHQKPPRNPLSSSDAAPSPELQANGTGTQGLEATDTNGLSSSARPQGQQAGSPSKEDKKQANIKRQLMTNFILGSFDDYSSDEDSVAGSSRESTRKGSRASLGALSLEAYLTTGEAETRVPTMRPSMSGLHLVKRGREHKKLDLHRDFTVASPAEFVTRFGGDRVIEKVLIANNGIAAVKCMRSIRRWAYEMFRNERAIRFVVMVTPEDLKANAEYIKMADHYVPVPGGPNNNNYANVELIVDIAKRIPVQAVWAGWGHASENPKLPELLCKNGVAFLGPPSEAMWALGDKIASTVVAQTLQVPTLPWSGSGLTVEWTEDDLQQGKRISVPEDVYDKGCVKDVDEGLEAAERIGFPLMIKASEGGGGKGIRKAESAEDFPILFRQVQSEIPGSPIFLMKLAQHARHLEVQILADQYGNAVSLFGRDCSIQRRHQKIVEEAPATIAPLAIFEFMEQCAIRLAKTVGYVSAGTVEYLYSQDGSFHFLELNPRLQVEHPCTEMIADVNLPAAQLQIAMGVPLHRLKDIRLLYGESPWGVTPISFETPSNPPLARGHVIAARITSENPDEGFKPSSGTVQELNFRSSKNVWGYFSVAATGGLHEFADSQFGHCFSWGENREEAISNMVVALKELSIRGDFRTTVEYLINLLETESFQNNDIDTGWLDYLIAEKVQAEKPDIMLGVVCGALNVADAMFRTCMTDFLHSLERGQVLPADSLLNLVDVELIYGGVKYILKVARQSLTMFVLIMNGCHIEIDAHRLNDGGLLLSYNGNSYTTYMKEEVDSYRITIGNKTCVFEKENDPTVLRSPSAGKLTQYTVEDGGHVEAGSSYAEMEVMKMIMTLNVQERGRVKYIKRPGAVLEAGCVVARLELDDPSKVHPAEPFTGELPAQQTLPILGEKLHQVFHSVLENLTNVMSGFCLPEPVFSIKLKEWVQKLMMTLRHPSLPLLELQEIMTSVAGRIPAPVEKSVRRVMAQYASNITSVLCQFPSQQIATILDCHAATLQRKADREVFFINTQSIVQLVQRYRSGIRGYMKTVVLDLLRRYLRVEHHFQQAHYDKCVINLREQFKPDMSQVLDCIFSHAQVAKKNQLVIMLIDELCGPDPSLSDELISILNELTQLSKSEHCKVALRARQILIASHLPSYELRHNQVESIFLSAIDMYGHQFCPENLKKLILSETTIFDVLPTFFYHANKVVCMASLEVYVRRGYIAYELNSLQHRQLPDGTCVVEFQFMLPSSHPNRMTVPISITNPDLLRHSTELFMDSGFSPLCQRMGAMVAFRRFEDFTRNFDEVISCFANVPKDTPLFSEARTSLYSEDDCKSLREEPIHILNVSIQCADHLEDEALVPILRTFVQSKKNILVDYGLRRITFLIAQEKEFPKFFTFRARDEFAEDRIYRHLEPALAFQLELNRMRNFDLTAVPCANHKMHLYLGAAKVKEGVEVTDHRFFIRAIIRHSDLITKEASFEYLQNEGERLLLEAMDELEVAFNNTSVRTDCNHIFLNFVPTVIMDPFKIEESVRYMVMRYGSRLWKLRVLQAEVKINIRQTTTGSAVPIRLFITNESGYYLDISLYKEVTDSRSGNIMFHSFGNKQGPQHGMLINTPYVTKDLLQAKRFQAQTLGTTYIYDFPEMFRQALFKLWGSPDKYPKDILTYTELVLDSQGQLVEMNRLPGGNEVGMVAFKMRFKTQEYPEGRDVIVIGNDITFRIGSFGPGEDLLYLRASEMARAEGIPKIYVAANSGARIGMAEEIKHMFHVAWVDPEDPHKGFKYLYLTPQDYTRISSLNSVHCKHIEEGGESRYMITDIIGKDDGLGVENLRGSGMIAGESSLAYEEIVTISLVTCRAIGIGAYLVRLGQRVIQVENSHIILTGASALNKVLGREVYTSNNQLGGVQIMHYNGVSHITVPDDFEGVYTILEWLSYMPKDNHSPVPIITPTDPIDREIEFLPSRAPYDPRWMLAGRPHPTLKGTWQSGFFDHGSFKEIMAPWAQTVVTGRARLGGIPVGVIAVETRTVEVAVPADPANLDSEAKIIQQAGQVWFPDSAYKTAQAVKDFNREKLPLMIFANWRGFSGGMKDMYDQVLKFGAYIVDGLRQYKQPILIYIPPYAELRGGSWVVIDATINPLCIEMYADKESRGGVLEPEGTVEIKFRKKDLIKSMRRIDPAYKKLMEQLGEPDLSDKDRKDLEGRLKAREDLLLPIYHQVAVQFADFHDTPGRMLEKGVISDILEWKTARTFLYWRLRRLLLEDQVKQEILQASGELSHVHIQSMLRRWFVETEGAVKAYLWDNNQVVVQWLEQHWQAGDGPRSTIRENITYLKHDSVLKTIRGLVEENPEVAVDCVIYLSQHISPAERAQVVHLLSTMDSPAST
Chain of fungal (fACC2) ACC2 (Q00955 whole entry): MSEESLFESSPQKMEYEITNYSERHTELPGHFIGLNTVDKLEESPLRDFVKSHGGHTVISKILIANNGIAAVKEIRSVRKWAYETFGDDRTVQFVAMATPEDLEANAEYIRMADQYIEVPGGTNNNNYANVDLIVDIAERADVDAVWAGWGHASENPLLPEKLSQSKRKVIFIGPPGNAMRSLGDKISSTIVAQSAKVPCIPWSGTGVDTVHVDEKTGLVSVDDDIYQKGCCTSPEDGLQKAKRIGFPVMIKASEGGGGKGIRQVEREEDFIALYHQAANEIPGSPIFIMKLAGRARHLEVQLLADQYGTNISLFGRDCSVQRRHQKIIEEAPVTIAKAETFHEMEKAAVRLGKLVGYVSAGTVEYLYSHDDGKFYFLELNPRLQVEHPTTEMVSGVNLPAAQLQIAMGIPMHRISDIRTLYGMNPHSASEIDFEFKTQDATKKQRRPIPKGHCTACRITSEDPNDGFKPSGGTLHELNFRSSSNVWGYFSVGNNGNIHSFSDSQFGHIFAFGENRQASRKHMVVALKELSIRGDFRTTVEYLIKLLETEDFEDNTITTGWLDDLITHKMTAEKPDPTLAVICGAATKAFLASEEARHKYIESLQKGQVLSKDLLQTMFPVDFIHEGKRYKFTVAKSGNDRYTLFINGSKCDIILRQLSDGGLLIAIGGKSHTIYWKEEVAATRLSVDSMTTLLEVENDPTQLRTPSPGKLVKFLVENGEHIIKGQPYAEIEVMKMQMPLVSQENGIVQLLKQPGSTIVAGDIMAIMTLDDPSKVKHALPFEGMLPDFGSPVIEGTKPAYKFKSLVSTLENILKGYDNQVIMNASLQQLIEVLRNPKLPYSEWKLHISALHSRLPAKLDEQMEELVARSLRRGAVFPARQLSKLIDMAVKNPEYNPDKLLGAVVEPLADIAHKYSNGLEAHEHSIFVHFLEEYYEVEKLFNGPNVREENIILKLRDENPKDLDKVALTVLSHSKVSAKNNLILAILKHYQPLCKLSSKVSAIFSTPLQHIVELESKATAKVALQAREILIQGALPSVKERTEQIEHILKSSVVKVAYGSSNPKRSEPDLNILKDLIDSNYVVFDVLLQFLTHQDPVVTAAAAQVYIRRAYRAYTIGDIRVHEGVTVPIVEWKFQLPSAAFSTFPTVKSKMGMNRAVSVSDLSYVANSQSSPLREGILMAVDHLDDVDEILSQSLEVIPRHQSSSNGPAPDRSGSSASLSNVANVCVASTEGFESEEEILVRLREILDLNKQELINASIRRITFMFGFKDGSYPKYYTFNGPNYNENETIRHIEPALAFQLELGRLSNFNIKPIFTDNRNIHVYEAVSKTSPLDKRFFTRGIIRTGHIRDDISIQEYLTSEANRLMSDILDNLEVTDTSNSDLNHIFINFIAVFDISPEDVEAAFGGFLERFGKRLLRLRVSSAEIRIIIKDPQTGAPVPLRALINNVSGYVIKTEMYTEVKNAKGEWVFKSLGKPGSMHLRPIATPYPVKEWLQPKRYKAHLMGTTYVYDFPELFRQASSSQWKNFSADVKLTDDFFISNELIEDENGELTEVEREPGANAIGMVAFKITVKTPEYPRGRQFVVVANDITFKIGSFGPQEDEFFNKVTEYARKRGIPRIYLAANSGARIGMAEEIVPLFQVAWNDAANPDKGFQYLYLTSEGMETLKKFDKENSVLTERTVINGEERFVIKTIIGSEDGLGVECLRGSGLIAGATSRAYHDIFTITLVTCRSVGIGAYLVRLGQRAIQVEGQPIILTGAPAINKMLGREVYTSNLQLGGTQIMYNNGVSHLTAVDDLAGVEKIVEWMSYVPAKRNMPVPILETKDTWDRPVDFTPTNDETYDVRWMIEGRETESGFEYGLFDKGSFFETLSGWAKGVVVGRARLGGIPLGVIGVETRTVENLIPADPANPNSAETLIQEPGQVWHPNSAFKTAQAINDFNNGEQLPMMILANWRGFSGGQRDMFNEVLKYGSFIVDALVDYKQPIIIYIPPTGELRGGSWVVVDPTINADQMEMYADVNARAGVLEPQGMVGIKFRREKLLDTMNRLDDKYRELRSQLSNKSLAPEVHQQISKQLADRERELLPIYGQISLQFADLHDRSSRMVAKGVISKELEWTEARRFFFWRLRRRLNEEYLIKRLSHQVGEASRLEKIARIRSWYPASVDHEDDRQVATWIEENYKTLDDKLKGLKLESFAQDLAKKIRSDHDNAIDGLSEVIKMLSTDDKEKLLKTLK

Row | Structure (SMILES) | IC50 (human (hACC2) ACC2) [nM] | IC90 (Rhizoctonia solani (Rs); Table 4a) [µg/mL] | IC90 (Rhizoctonia solani (Rs); Table 4b) [µg/mL] | IC90 (Diplodia maydis (Dm); Table 4a) [µg/mL] | IC90 (Diplodia maydis (Dm); Table 4b) [µg/mL] | IC90 (Botrtyis cinerea (Bc); Table 4a) [µg/mL] | IC90 (Botrtyis cinerea (Bc); Table 4b) [µg/mL] | IC90 ([4]; Table 4a) [µg/mL] | IC90 ([4]; Table 4b) [µg/mL] | IC50 (fungal (fACC2) ACC2) [nM] | IC90 ([1]; Table 4b, 48 hours) [µg/mL] | IC90 [3, 6] [µg/mL] | MIC (C. krusei ATCC 6258; [7]) [µg/mL] | MIC [5, 8] [µg/mL] | MIC (C. albicans ATCC 90028; [9]) [µg/mL] | IC90 ([1]; Table 4a, 48 hours) [µg/mL] | IC90 ([2]; Table 4a, 48 hours) [µg/mL] | Concentration at 90% Inhibition Pc ([2]; Table 4b, 48 hours) | IC90 [3, 10] [µg/mL] | Concentration at 90% Inhibition St (Septoria tritici (St); Table 4b, 48 hours) | also measured
1 | COc1ccccc1[C@H](Cn1c(=O)n(C(C)(C)C(=O)N2CCCCC2)c(=O)c2c(C)c(-n3cccn3)sc21)OC1CCOCC1 [Compound I-13, (R)-1-(2-(2-methoxyphenyl)-2-((tetrahydro-2H-pyran-4-yl)oxy)ethyl)-5-methyl-3-(2-methyl-1-oxo-1-(piperidin-1-yl)propan-2-yl)-6-(1H-pyrazol-1-yl)thieno[2,3-d]pyrimidine-2,4(1H,3H)-dione] | 10 to 40 | > 50 | 10 (≈ 15.7 µM) | > 50 | 10 (≈ 15.7 µM) | 2 (≈ 3.15 µM) | 2 (≈ 3.15 µM) | > 50 | 10 (≈ 15.7 µM) | 0.6 to 3 |  |  |  |  |  |  |  |  |  |  | IC90 [1]: 0.4 µg/mL (≈ 0.629 µM); Concentration at 90% Inhibition Fm ([1]; Table 4b, 48 hours): A (“A” provided a compound concentration of 0.4 ppm at 90% inhibition of fungal pathogens); IC90 ([2]; 48 h, Table 4a): > 50 µg/mL; IC90 ([2]; 48 h, Table 4b): > 50 µg/mL; IC90 ([3]; read-out: Concentration at 90% Inhibition Fv, Table 4a, 48 hours): > 50 µg/mL; IC90 ([3]; read-out: Concentration at 90% Inhibition Fv, Table 4b, 48 hours): 10 µg/mL (≈ 15.7 µM); IC90 (Septoria tritici (St); 48 h, Table 4a): > 50 µg/mL; IC90 (Septoria tritici (St); 48 h, Table 4b): > 50 µg/mL; MIC (C. krusei ATCC 6258; ATCC6258, 48 h): 0.25 to 1 µg/mL (≈ 0.393 to 1.57 µM); MIC ([5]; ATCC22019, 48 h): 1.1 to 2 µg/mL (≈ 1.73 to 3.15 µM); MIC (C. albicans ATCC 90028; ATCC90028, 48 h): 0.25 to 1 µg/mL (≈ 0.393 to 1.57 µM)
2 | COc1ccc(F)cc1[C@H](Cn1c(=O)n(C(C)(C)C(=O)N2CCCC2)c(=O)c2c(C)c(-n3cccn3)sc21)OCCC#N [Compound I-81, (R)-3-(1-(5-fluoro-2-methoxyphenyl)-2-(5-methyl-3-(2-methyl-1-oxo-1-(pyrrolidin-1-yl)propan-2-yl)-2,4-dioxo-6-(1H-pyrazol-1-yl)-3,4-dihydrothieno[2,3-d]pyrimidin-(2H)-yl)ethoxy)propanenitrile] | 3 to 10 |  | 0.08 (≈ 0.131 µM) |  | 2 (≈ 3.29 µM) |  | 0.4 (≈ 0.657 µM) |  | 2 (≈ 3.29 µM) | 0.6 to 3 | 0.08 (≈ 0.131 µM) | 0.4 (≈ 0.657 µM) | > 4.1 | > 4.1 | > 4.1 |  |  |  |  |  | IC90 ([2]; Table 4b, 48 hours): > 50 µg/mL; IC90 (Septoria tritici (St); Table 4b, 48 hours): > 50 µg/mL
3 | COc1ccc(F)cc1[C@H](Cn1c(=O)n(C(C)(C)C(=O)N2CC=CC2)c(=O)c2c(C)c(-n3cccn3)sc21)OC1CCOCC1 [Compound I-45, (R)-3-(1-(2,5-dihydro-1H-pyrrol-1-yl)-2-methyl-1-oxopropan-2-yl)-1-(2-(5-fluoro-2-methoxyphenyl)-2-((tetrahydro-2H-pyran-4-yl)oxy)ethyl)-5-methyl-6-(1H-pyrazol-1-yl)thieno[2,3-d]pyrimidine-2,4(1H,3H)-dione] | 10 to 40 | 2 (≈ 3.14 µM) | 2 (≈ 3.14 µM) | > 50 | 10 (≈ 15.7 µM) | > 50 | 10 (≈ 15.7 µM) | 2 (≈ 3.14 µM) | 2 (≈ 3.14 µM) | 0.6 to 3 | 2 (≈ 3.14 µM) | 10 (≈ 15.7 µM) | 0.25 to 1 (≈ 0.392 to 1.57 µM) | 2.1 to 4 (≈ 3.29 to 6.27 µM) | 2.1 to 4 (≈ 3.29 to 6.27 µM) | 2 (≈ 3.14 µM) | > 50 | D (“D” provided a compound concentration of >50 ppm at 90% inhibition of fungal pathogens) | > 50 | D (“D” provided a compound concentration of >50 ppm at 90% inhibition of fungal pathogens) | IC90 (Septoria tritici (St); Table 4a, 48 hours): > 50 µg/mL
4 | COc1ccc(F)cc1[C@H](Cn1c(=O)n(C(C)(C)C(=O)NC(C)C)c(=O)c2c(C)c(-n3cccn3)sc21)OC(C)C.I [Compound I-1, (R)-2-(I-(2-(5-fluoro-2-methoxyphenyl)-2-isopropoxyethyl)-5-methyl-2,4-dioxo-6-(1H-pyrazol-1-yl)-1,4-dihydrothieno[2,3-d]pyrimidin-3(2H)-yl)-N-isopropyl-2-methylpropanamide] | 10 to 40 | 2 | 2 | 2 | 2 | 0.4 | 0.4 | 2 | 2 | 0.6 to 3 | 0.08 | 0.4 | 0.25 to 1 | 2.1 to 4 | 2.1 to 4 | 0.08 | > 50 | D (“D” provided a compound concentration of >50 ppm at 90% inhibition of fungal pathogens) | 0.4 | D (“D” provided a compound concentration of >50 ppm at 90% inhibition of fungal pathogens) | IC90 (Septoria tritici (St); Table 4a, 48 hours): > 50 µg/mL
5 | COc1ccc(F)cc1[C@H](Cn1c(=O)n([C@@H](C)C(=O)N2CCCC2)c(=O)c2c(C)c(-n3cccn3)sc21)OC(C)C [Compound I-31, 1-((R)-2-(5-fluoro-2-methoxyphenyl)-2-isopropoxyethyl)-5-methyl-3-((S)-1-oxo-1-(pyrrolidin-1-yl)propan-2-yl)-6-(1H-pyrazol-1-yl)thieno[2,3-d]pyrimidine-2,4(1H,3H)-dione] | 3 to 10 | 2 (≈ 3.43 µM) | 2 (≈ 3.43 µM) | 0.4 (≈ 0.685 µM) | 0.4 (≈ 0.685 µM) | 0.4 (≈ 0.685 µM) | 0.4 (≈ 0.685 µM) | 0.4 (≈ 0.685 µM) | 0.4 (≈ 0.685 µM) | 0.6 to 3 | 0.08 (≈ 0.137 µM) | 0.4 (≈ 0.685 µM) | 2.1 to 4 (≈ 3.6 to 6.85 µM) | 2.1 to 4 (≈ 3.6 to 6.85 µM) | 1.1 to 2 (≈ 1.88 to 3.43 µM) | 0.08 (≈ 0.137 µM) | > 50 | D (“D” provided a compound concentration of >50 ppm at 90% inhibition of fungal pathogens) | 0.4 (≈ 0.685 µM) | D (“D” provided a compound concentration of >50 ppm at 90% inhibition of fungal pathogens) | IC90 (Septoria tritici (St); Table 4a, 48 hours): > 50 µg/mL
